According to patent US11590107B2, “Methods for treating neurological disorders with α1A-AR partial agonists” (CURASEN THERAPEUTICS, INC., priority 2019, dated 2023):
Like-named read-outs stand apart in the source and are kept apart here.

Tests used:
α1A-AR receptor [1] = molecular target: T1, α1A-AR receptor (Homo sapiens, UniProt P35348); conditions: FLIPR assay; Blue et al., Table 1; cited from earlier work
T1 sequence (P35348 1-466): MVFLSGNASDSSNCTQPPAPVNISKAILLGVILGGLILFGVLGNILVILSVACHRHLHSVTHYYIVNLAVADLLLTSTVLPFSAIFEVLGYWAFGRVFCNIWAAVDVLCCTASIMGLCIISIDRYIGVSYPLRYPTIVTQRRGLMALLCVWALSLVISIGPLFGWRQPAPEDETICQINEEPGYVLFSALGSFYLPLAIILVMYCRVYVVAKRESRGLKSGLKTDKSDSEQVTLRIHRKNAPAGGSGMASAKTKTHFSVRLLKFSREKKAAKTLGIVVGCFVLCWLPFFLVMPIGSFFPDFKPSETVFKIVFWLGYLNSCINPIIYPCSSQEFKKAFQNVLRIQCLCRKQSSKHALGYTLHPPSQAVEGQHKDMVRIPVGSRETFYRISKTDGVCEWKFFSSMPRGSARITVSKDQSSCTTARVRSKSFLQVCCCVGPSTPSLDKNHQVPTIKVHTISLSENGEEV

α1A-AR receptor [2] = molecular target: T1, α1A-AR receptor; conditions: InsPs accumulation assay; Blue et al., Table 1; cited from earlier work
[3] = system: patients with symptomatic neurogenic orthostatic hypotension; assay: Treatment of patients having nOH (Example 1); assay type: in vivo, human; conditions: 5 mg oral tablets twice daily, follow-up after one week
Protocol: Patients between the age of 40 and 80 years old that have been diagnosed with symptomatic orthostatic hypotension due to pure autonomic failure, multiple system atrophy or Parkinson's disease (i.e., PD plus symptoms) present for treatment. At the time of presentation, autonomic function testing is conducted to confirm the diagnosis of autonomic dysfunction including sinus arrhythmia and the Valsalva maneuver.
The patients are given 5 mg dabuzalgron oral tablets and are instructed to take one tablet shortly after waking up in the morning and a second tablet 4-6 hours later each day.
Some patients return for a follow-up visit after one week of treatment. […] In the follow-up visit supine systolic blood pressure (SSBP) may be determined.

[4] = system: patients with central autonomic failure; conditions: Ramirez et al. 2014, Shibao et al. 2007; cited from earlier work

SMILES: Cc1c(OCC2=NCCN2)ccc(Cl)c1NS(C)(=O)=O.Cl [RO 115-1240 (dabuzalgron) HCl salt, N-[6-chloro-3-(4,5-dihydro-1H-imidazol-2-ylmethoxy)-2-methylphenyl] methanesulfonamide hydrochloride]
- intrinsic activity as compared to noradrenaline (α1A-AR receptor [1]): 0.51
- intrinsic activity as compared to noradrenaline (α1A-AR receptor [2]): 0.27

SMILES: Cc1c(OCC2=NCCN2)ccc(Cl)c1NS(C)(=O)=O [RO 115-1240 (dabuzalgron) free base, N-[6-chloro-3-(4,5-dihydro-1H-imidazol-2-ylmethoxy)-2-methylphenyl] methanesulfonamide]
- intrinsic activity as compared to noradrenaline (α1A-AR receptor [2]): 0.31

SMILES: Cc1c(OCC2=NCCN2)ccc(Cl)c1NS(C)(=O)=O [dabulzagron, N-[6-chloro-3-(4,5-dihydro-1H-imidazol-2-ylmethoxy)-2-methylphenyl] methanesulfonamide]
- rise in SSBP compared with patients taking midodrine or droxidopa for nOH [3]: less that that observed in patients taking midodrine or droxidopa
- rise in supine systolic blood pressure (SSBP) [3]: not experience a substantial rise in SSBP
- symptoms of nOH as compared to the first visit before treatment [3]: improve

SMILES: CNCC[C@@H](Oc1ccccc1C)c1ccccc1 [Atomoxetine]
- effect on blood pressure [4]: increase blood pressure
